Patent US20220137027A1, “METHOD FOR EVALUATING MOLECULAR CHANGES RELATED TO A MOLECULE EFFECT IN A BIOLOGICAL SAMPLE” (IMABIOTECH, priority 2019, published 2022)

Experiments:
Type in all cases: in vivo, BALB/c mice
[1] = Epacadostat quantification in CT26 tumor sections by LC-MS/MS; settings: BALB/c, mouse, CT26 tumor tissue sections, 100 mg/kg oral gavage
IDO1 = target: T1, IDO1 (Mus musculus, UniProt P28776); experiment: Regional exposure to response analysis in segmented ROIs of treated CT26 tumor (Kyn, Lactate, IDO1 immunostaining)
T1 construct: Colon carcinoma CT26 cell line was subcutaneously grafted into BALB/c mice; from tissue
T1 sequence (P28776 whole entry): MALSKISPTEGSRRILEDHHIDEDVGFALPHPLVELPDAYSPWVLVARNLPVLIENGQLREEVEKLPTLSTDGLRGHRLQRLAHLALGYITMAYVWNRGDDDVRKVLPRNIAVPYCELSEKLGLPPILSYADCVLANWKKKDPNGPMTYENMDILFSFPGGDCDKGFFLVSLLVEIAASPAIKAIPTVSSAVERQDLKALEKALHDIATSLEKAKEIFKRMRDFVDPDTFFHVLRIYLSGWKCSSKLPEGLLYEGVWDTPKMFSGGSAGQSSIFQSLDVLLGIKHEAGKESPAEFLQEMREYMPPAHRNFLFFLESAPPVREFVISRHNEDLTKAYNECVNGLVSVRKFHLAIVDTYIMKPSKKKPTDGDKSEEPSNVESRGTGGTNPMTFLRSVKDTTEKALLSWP
Method: (§1) Colon carcinoma CT26 cell line was subcutaneously grafted into BALB/c mice (Charles River Laboratories, France). […] Tumors were sampled and snap frozen in liquid nitrogen for 15 s. The samples were kept at −80° C. until use. Ten micrometers thick tissue sections were obtained using a cryostat microtome (CM-3050S, Leica, Germany) with a microtome chamber and a specimen holder chilled at −23° C. Tissue sections were thaw mounted onto ITO-coated slides for downstream MALDI imaging and serial sections on SuperFrost slide for histological and immunohistochemistry (IHC) analysis. Biological replicates in duplicate (distant serial sections) were performed for analytical reproducibility. […] All animal experiments were compliant with the 2010/63/UE European Directive on Laboratory Animal Welfare and were approved by an Ethical Committee.
As Kyn was not detectable and Trp was slightly seen using classical method in CT26 tumor models, a derivatization strategy was necessary. The derivatization reaction amounts to adding the C11H16N+ (as X) unit to the neutral analyte. The agent was applied using an automatic sprayer (Suncollect, Sunchrom) and left during 30 min for incubation at room temperature. […] MSI data for kynurenine and tryptophan was recorded in positive ion mode (CASI, m/z range 350.0+/−150) at 120 μm of spatial resolution using an online calibration. […]
For MALDI MSI of other metabolites, a uniform layer of filtrated 1,5-diaminonaphtalene (1,5-DAN) prepared at 10 mg/mL with 50/50 ACN/H2O matrix was deposited onto the tumor tissue sections using an HTX-TM sprayer device (HTX Technologies, LLC, Carrboro, N.C.). […] MSI data for metabolites were recorded in full scan negative ion mode (m/z range 100-1000) at 120 μm of spatial resolution using an online calibration. […]
1.2 software (ImaBiotech SAS). This multimodal imaging platform combines quantitative mass spectrometry imaging (QMSI) and microscopy platform with statistical analysis for the understanding of the Omics information at cellular levels. […] Finally, an exposure score was calculated using the Multimaging software using the formula: […]

[2] = Epacadostat absolute quantification in CT26 tumor sections by QMSI (MALDI MSI)
Method: as §1
Then, low limit of detection (LOD), low limit of quantitation (LLOQ) and limit of linearity parameters were defined for the calibration curve that has been performed using at least 10 spotted concentrations on 10 μm thickness control tumor tissue sections. […] On the same ITO slide, calibration curve and tissue sections of interest (1 control and 3 treated in duplicates) were deposited and analyzed. Then, a uniform layer of filtrated 1,5-diaminonaphtalene (1,5-DAN) prepared at 10 mg/mL with 50/50 ACN/H2O matrix was deposited onto the tumor tissue sections using an HTX-TM sprayer device (HTX Technologies, LLC, Carrboro, N.C.). MALDI MSI analyses were performed using 7T MALDI-FTICR (SolariX XR, Bruker Daltonics, Bremen, Germany) with a SmartBeam II laser. […] Data acquisition was performed using the Flex software (FtmsControl 2.1.0) from Bruker Daltonics. Then, Multimaging software (ImaBiotech SAS) was used to obtain the calculated equation and to extract the different quantities in pmol/mm^2. A quantity conversion to μg/g of tissue was then obtained in created regions of interest (ROIs).
1.2 software (ImaBiotech SAS). This multimodal imaging platform combines quantitative mass spectrometry imaging (QMSI) and microscopy platform with statistical analysis for the understanding of the Omics information at cellular levels. MSI data were acquired from each tissue section as well as matrix control areas adjacent to the tissue sections to check for analyte dispersion/delocalization during sample preparation. Therefore, the ROIs related to EPA and/or Kyn presence were given by an image segmentation algorithm. […] Then, the algorithm smoothed the two ROIs to transform them into connected spaces. Finally, an exposure score was calculated using the Multimaging software using the formula: […]

[3] = Epacadostat quantification in plasma and blood; settings: BALB/c, mouse, 100 mg/kg oral

SMILES: NS(=O)(=O)NCCNc1nonc1C(=NO)Nc1ccc(F)c(Br)c1 [EPA, Epacadostat]
- concentration at 2 h [1]: 38500 ng/g
- correlation between IDO1 expression level (semi-quantitative histology) and EPA levels (IDO1; IDO1 immunostaining on serial section): positive correlation
- share of Kyn present in ROI 1 (high EPA) (IDO1; ROI 1 = 38% of the entire tumor): 15%
- share of Kyn present in ROI 2 (low EPA) (IDO1; ROI 2): 85%
- Kp at 2 h ([2]; BALB/c, mouse, CT26 tumor relative to plasma, oral, 100 mg/kg, treated CT26 tumors, LC-MS/MS and QMSI): 3 to 4
- concentration at 2 h ([2]; BALB/c, mouse, CT26 tumor section, ROI 1 (high EPA region), oral, 100 mg/kg, EPA quantity in ROI 1 (high EPA), QMSI, ROI 1 = 38% of tumor surface): 68000 ng/g
- concentration at 2 h ([2]; BALB/c, mouse, CT26 tumor section, ROI 1, oral, 100 mg/kg, EPA quantity corresponding to the share in ROI 1, 61% of EPA signal): 26000 ng/g
- concentration at 2 h ([2]; BALB/c, mouse, CT26 tumor section, ROI 2 (low EPA region), oral, 100 mg/kg, EPA quantity in ROI 2 (low EPA), QMSI, ROI 2 = 62% of tumor surface): 25000 ng/g
- concentration at 2 h ([2]; BALB/c, mouse, CT26 tumor section, ROI 2, oral, 100 mg/kg, EPA quantity corresponding to the share in ROI 2, 39% of EPA signal): 15000 ng/g
- concentration at 2 h ([2]; BALB/c, mouse, CT26 tumor section, ROI 3 (entire section), oral, 100 mg/kg, EPA quantity in ROI 3 (entire treated tumor section), QMSI): 42000 ng/g
- concentration at 2 h ([2]; BALB/c, mouse, CT26 tumor tissue sections, po, 100 mg/kg, EPA quantity in treated CT26 tumor sections, three biological triplicates, QMSI, 100 mg/kg oral gavage, sacrificed 2 hours later): 38000 to 53000 ng/g
- concentration at 2 h ([2]; BALB/c, mouse, CT26 tumor tissue sections, po, 100 mg/kg, average EPA quantity in CT26 tumor, QMSI, 100 mg/kg oral gavage, 2 hours): 46000 ng/g
- concentration at 2 h ([2]; BALB/c, mouse, CT26 tumor tissue, oral, 100 mg/kg, available on tissue quantity of EPA in treated CT26 tumors, LC-MS/MS and QMSI): 35000 to 48000 ng/g
- share of EPA signal concentrated in ROI 1 ([2]; ROI 1 = 38% of entire tissue section): ~61%
- share of EPA signal in ROI 2 ([2]; ROI 2 = 62% left tumor region): 39%
- concentration at 2 h ([3]; plasma): 6600 ng/g
- concentration at 2 h ([3]; whole blood): 7300 ng/g
